# Reference: patent US20240285626A1, “INFIGRATINIB FOR TREATMENT OF FGFR3-RELATED SKELETAL DISEASES DURING PREGNANCY” (INSERM (INSTITUT NATIONAL DE LA SANTÉ ET DE LA RECHERCHE …, priority 2018, published 2024)
# How the values were obtained:
# Fgfr3Y367C/+ pups = format: in vivo, mice
# Description: We treated pregnant female Fgfr3^Neo/Y367C mice that were mated with Cre^CMV/+ male mice (Pannier, S., Couloigner, V., Messaddeq, N., Elmaleh-Bergès, M., Munnich, A., Romand, R., & Legeai-Mallet, L. (2009). Activating Fgfr3 Y367C. mutation causes hearing loss and inner ear defect in a mouse model of chondrodysplasia. Biochimica et Biophysica Acta (BBA)-Molecular Basis of Disease, 1792(2), 140-147.). We injected BGJ398 (4 mg/kg) subcutaneously in 5 pregnant mice at day E14.5 continuing daily through day 1 (after birth). The pregnant mice received 5 injections of BGJ398 before delivery. We applied isofluorane inhalation to the pregnant mice during 20 seconds before the subcutaneous injections. All the pups were analyzed at day 1 after birth. At necropsy, all the long bones were measured and embedded in paraffin and were submitted to histology and immunology.
# [1] = tested on: Fgfr3Y367C/+ pups exhibiting dwarfism; settings: Komla-Ebri et al 2016; Biosse Duplan et al 2016; cited from earlier work
# [2] = Fgfr3Y367C/+ pups, day 1 after birth, mothers 4 mg/kg s.c. daily from E14.5, vs vehicle
# [3] = femur histology, H&E staining, vs vehicle, data not shown
smiles,measurement,setting,value
"CCN1CCN(c2ccc(Nc3cc(N(C)C(=O)Nc4c(Cl)c(OC)cc(OC)c4Cl)ncn3)cc2)CC1 [BGJ398, 3-(2,6-dichloro-3,5-dimethoxyphenyl)-1-[6-[4-(4-ethylpiperazin-1-yl)anilino]pyrimidin-4-yl]-1-methylurea]",skeletal phenotype at birth,Fgfr3Y367C/+ pups; 4 Fgfr3Y367C/+ pups that received BGJ398 vs 5 that received vehicle,improvement of the skeletal phenotype
same,"length of the upper limbs (humerus, ulna, radius), in words","Fgfr3Y367C/+ pups; FIG. 1A-C, pups at day 1, mothers 4 mg/kg s.c.",significant improvement of the length
same,"length of the lower limbs (femur, tibia), in words","Fgfr3Y367C/+ pups; FIG. 2A-B, pups at day 1, mothers 4 mg/kg s.c.",improvement of the length
same,improvement of the size of tibia,Fgfr3Y367C/+ pups; [2],+4.32%
same,increase of the length of humerus,Fgfr3Y367C/+ pups; [2],+4.35%
same,increase of the length of ulna,Fgfr3Y367C/+ pups; [2],+6.12%
same,organization of chondrocytes in the proliferative zone of the growth plate cartilage,Fgfr3Y367C/+ pups; [3],well organized
same,size of the hypertrophic chondrocytes in the hypertrophic zone,Fgfr3Y367C/+ pups; [3],increased
same,placental transfer,"Fgfr3Y367C/+ pups; mouse, in vivo",cross the placenta at therapeutic level
same,skeletal anomalies that occurred during embryonic stages,Fgfr3Y367C/+ pups; treatment during 5 days in pregnant mice,successfully repressed skeletal anomalies
same,pathological hallmarks of ACH,[1],corrects pathological hallmarks of ACH
